What was measured:
[1] = target: T1, Mitogen-activated protein kinase kinase kinase 5 (Homo sapiens) (UniProt Q99683); assay: MAP3K5 SGC Tm panel (DSF); details: for ΔTm: Compound concentration 10.0 uM
T1 sequence (whole entry): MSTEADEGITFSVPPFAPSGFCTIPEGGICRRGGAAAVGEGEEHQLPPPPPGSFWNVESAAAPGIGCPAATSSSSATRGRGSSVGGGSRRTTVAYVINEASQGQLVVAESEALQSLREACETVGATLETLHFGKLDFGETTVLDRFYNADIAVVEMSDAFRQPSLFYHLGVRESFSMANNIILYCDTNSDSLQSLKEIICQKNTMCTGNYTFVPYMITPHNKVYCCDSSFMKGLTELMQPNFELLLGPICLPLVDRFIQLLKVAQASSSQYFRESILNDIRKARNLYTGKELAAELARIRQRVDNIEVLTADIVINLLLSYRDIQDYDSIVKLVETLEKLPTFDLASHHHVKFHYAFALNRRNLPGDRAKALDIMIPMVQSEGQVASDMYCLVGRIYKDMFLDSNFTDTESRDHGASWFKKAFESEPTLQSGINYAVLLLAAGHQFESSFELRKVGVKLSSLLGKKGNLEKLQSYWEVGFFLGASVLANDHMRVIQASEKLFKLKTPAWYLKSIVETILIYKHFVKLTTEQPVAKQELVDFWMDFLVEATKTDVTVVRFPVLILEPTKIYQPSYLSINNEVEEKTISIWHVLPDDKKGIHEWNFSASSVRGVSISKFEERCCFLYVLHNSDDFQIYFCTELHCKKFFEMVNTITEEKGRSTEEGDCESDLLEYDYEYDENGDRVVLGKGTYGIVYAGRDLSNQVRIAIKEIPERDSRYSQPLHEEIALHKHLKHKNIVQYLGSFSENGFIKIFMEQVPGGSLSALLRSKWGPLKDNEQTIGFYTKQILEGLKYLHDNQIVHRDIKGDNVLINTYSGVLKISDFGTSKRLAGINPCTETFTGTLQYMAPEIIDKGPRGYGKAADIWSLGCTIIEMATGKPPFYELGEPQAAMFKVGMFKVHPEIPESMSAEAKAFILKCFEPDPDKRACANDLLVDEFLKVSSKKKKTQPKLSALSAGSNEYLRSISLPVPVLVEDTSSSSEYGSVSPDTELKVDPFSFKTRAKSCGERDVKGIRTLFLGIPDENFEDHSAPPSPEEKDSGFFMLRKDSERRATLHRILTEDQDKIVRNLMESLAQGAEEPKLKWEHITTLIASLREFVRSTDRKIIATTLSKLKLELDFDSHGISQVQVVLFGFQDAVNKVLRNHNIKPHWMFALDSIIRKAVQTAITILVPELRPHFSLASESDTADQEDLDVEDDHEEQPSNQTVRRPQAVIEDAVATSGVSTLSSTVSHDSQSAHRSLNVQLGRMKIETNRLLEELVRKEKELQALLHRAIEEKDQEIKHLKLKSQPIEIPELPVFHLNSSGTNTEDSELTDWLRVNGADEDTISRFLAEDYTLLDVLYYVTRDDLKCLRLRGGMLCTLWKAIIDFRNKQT

[2] = target: Alpha-1B adrenergic receptor (Homo sapiens) (UniProt P35368); details: Compound concentration 10.0 uM
[3] = target: T2, Mitogen-activated protein kinase 15 (Homo sapiens) (UniProt Q8TD08); assay: MAPK15 SGC Tm panel (DSF); details: for ΔTm: Compound concentration 10.0 uM
T2 sequence (whole entry): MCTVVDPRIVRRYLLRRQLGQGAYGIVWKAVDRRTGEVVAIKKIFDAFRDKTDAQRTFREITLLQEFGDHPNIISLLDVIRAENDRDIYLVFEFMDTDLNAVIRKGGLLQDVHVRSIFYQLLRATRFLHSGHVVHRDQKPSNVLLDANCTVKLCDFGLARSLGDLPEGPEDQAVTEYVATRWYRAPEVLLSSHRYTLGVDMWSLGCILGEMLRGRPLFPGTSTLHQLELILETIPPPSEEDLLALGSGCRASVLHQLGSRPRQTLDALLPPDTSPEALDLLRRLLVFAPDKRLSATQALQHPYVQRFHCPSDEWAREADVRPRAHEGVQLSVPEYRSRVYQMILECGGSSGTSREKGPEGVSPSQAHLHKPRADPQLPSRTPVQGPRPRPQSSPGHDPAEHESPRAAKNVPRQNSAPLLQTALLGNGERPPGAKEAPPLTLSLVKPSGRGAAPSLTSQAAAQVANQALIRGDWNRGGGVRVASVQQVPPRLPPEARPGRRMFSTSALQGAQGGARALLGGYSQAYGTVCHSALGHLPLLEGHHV

[4] = target: T3, Calcium/calmodulin-dependent protein kinase type IV (Homo sapiens) (UniProt Q16566); assay: CAMK4 SGC Tm panel (DSF); details: for ΔTm: Compound concentration 10.0 uM
T3 sequence (whole entry): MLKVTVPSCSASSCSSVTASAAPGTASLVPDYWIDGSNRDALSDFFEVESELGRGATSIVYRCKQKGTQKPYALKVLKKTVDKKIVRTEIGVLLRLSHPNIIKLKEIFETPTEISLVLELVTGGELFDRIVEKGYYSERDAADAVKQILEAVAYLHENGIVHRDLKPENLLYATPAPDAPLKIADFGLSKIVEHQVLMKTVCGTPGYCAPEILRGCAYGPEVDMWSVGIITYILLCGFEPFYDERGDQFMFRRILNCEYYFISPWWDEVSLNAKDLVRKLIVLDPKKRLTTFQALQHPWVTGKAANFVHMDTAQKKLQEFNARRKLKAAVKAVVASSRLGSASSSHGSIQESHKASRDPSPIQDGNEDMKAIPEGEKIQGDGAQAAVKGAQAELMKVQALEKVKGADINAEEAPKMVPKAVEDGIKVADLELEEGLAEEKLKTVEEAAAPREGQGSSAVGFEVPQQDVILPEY

[5] = target: Alpha-2B adrenergic receptor (Homo sapiens) (UniProt P18089); details: Compound concentration 10.0 uM
[6] = target: Mitogen-activated protein kinase 1 (Homo sapiens) (UniProt P28482); assay: MAPK1 SGC Tm panel (DSF); details: for ΔTm: Compound concentration 10.0 uM
[7] = target: Fibroblast growth factor receptor 2 (Homo sapiens) (UniProt P21802); assay: FGFR2 SGC Tm panel (DSF); details: for ΔTm: Compound concentration 10.0 uM
[8] = target: D(3) dopamine receptor (Homo sapiens) (UniProt P35462); details: Compound concentration 10.0 uM
[9] = target: Serine/threonine-protein kinase PAK 4 (Homo sapiens) (UniProt O96013); assay: PAK4 SGC Tm panel (DSF); details: for ΔTm: Compound concentration 10.0 uM
[10] = target: Casein kinase I isoform epsilon (Homo sapiens) (UniProt P49674); assay: CSNK1E SGC Tm panel (DSF); details: for ΔTm: Compound concentration 10.0 uM
Sequence of Casein kinase I isoform epsilon (Homo sapiens) (P49674 whole entry, looked up, canonical isoform): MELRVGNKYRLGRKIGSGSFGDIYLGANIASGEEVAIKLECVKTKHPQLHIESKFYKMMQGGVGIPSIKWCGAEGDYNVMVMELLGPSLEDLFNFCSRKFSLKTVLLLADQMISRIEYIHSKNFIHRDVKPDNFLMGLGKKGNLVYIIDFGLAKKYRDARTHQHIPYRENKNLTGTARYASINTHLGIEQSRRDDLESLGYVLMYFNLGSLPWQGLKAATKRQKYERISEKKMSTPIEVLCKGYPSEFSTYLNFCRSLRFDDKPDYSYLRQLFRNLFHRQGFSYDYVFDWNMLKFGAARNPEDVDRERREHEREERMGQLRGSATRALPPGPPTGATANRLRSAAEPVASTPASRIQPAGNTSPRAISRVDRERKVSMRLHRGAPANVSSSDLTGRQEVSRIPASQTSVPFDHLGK

Sequence of Serine/threonine-protein kinase PAK 4 (Homo sapiens) (O96013 whole entry, looked up, canonical isoform): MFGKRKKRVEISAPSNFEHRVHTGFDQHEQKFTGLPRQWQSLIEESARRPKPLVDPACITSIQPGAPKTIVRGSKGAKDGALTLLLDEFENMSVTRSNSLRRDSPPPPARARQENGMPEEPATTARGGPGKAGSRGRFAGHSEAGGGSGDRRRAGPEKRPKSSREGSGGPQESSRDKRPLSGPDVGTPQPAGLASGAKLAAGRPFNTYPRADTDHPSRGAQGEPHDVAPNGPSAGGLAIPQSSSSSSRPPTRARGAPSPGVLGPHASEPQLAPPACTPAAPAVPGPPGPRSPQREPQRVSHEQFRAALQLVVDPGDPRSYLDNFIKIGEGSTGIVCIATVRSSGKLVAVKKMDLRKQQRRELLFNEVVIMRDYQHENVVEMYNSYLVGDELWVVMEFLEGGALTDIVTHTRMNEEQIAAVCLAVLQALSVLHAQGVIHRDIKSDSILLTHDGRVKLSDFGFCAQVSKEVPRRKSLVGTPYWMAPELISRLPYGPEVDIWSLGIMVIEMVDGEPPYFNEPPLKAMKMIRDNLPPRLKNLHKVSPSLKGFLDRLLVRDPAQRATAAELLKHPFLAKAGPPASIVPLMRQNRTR
Sequence of Mitogen-activated protein kinase 1 (Homo sapiens) (P28482 whole entry): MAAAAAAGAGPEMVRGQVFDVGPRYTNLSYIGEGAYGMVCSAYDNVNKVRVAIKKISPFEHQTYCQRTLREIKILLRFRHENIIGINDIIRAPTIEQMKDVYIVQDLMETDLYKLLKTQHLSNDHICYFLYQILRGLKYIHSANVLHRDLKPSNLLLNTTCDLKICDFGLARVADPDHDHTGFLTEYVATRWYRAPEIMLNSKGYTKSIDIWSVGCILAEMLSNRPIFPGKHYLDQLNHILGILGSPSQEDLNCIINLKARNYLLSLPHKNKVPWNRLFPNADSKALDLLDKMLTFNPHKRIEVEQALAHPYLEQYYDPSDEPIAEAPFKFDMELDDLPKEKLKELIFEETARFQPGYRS
Sequence of Fibroblast growth factor receptor 2 (Homo sapiens) (P21802 22-821 limits assumed): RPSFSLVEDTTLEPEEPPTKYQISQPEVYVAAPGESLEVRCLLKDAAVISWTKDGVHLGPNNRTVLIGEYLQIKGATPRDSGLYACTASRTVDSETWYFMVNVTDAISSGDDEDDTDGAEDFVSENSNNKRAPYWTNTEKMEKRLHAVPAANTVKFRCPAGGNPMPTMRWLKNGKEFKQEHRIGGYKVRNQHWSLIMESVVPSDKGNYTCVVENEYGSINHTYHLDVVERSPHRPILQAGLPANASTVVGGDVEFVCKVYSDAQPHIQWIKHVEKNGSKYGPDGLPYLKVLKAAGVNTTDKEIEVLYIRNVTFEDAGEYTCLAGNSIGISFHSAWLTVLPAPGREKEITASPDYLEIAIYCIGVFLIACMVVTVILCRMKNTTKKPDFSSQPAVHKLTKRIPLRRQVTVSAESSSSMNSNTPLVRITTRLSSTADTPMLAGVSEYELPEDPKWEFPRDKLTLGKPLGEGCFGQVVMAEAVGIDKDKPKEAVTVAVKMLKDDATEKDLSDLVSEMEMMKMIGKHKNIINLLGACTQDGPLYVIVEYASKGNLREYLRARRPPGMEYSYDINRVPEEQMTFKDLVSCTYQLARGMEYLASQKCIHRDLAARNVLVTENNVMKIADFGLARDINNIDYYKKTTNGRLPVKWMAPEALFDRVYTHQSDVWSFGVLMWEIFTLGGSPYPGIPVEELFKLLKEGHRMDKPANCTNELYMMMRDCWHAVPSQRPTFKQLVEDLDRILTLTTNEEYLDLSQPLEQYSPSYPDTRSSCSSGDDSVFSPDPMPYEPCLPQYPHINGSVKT
Sequence of D(3) dopamine receptor (Homo sapiens) (P35462 whole entry): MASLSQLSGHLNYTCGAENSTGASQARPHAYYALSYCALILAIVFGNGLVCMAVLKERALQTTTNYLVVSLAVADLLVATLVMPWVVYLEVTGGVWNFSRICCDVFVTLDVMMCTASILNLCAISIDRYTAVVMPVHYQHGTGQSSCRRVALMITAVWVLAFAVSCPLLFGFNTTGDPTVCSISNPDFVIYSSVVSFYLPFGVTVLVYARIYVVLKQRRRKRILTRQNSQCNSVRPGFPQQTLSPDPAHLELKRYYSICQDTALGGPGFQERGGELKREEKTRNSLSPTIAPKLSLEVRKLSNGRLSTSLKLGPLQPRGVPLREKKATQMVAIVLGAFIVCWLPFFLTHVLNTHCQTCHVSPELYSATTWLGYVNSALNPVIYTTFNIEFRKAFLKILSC
Sequence of Alpha-2B adrenergic receptor (Homo sapiens) (P18089 whole entry): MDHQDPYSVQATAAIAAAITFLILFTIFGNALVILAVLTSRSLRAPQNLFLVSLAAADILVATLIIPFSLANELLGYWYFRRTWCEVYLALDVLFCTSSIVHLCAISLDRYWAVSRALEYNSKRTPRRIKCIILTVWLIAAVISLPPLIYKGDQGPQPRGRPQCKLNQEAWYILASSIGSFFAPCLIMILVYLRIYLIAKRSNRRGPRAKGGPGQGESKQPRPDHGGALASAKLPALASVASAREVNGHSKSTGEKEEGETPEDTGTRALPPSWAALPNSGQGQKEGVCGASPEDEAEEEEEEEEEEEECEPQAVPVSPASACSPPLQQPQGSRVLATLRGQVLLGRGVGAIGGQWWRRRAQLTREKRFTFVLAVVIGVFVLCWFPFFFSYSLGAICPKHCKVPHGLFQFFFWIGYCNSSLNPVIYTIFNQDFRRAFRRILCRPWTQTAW
Sequence of Alpha-1B adrenergic receptor (Homo sapiens) (P35368 whole entry): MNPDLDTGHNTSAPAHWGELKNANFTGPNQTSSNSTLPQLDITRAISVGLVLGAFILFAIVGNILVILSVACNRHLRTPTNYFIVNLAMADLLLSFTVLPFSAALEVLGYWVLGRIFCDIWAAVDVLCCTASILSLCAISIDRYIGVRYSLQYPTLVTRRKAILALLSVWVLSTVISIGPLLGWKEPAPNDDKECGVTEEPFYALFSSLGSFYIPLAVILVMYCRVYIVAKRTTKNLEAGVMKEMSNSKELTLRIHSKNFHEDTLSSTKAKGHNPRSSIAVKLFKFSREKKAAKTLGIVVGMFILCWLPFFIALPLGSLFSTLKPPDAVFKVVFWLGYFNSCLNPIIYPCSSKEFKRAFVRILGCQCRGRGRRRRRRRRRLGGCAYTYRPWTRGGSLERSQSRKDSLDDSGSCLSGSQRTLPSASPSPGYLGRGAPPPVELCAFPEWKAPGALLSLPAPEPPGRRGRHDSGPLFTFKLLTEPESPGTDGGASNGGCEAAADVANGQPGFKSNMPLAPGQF

| delta Tm Staurosporine positive control [1] | ΔTm [1] | inhibition [2] [%] | delta Tm Staurosporine positive control [4] | ΔTm [4] | inhibition [5] [%] | delta Tm Staurosporine positive control [6] | ΔTm [6] | delta Tm Staurosporine positive control [7] | ΔTm [7] | inhibition [8] [%] | delta Tm Staurosporine positive control [9] | ΔTm [9] | delta Tm Staurosporine positive control [10] | ΔTm [10] | SMILES | delta Tm Staurosporine positive control [3] | ΔTm [3] |
| --- | --- | --- | --- | --- | --- | --- | --- | --- | --- | --- | --- | --- | --- | --- | --- | --- | --- |
| 18.1 | 1.17 | 8 | 8.78 | 0.413 | 14.6 | 1.98 | 0.442 | 8.53 | 0.191 | 28.2 | 13.4 | -0.0631 | 3.74 | 0.73 | C[C@H](NC(=O)c1cn(C2(C#N)CC2)cn1)C(=O)Nc1nc(-c2cccc(-c3ccn(C)n3)c2)cs1 | 15 | 1.05 |
| 18.1 | 1.14 | -5.17 | 8.78 | 0.803 | 6.88 | 1.98 | 0.812 | 8.53 | 0.294 | 13 | 13.4 | -0.0385 | 3.74 | 0.508 | COC[C@H](NC(=O)c1ccn(S(C)(=O)=O)c1)C(=O)Nc1nc(-c2cccc(-c3ccn(C)n3)c2)cs1 | 15 | 0.94 |

— ChEMBL document CHEMBL5303766, “Data for DCP probe FHT-2344” (2022)
